# Values of other authors, collected in patent publication EP0268928A2, “Safened pesticidal dispersion resin compositions for controlling soil borne pests and process for the preparation thereof” (priority 1986, dated 1988).
# Test system: rats
# Details: technical grade
smiles,measurement,value
"CCOP(=S)(OCC)SCSCC [phorate, 0,0-diethyl-S-(ethylthiomethyl)phosphorodithioate]",acute oral LD50 value in rats,1.6-3.7 mg technical/kg
